Measurements: patent publication US20020183340A1, “4-(4'-HYDROXYPHENYL) AMINO-6,7-DIMETHOXYQUINAZOLINE TO PREVENT DEVELOPMENT OF COLORECTAL CANCER” (Parker Hughes Institute, priority 1999, published 2002)

Test system: APC^min mouse model
Assay: APC^min mouse model of colorectal cancer development (chow supplemented with compound)
Type: in vivo, mice
Conditions: for Probability Of Survival: APC^min mice fed chow with 0.3 wt % compound once a week from six weeks of age, n = 23
Source text: An APC^min mouse model was used to test the ability of 4-(4′-hydroxyphenyl)-amino-6,7-dimethoxyquinazoline to prevent the development of colorectal cancer. A total of 23 APC^min mice were fed rodent chow, which was supplemented with 0.3 wt % 4-(4′-hydroxyphenyl)-amino-6,7-dimethoxyquinazoline once a week starting at six weeks of age. A control group of 30 mice were fed rodent chow without 4-(4′-hydroxyphenyl)-amino-6,7-dimethoxyquinazoline. The health status of the mice was monitored for thirty weeks. Table 1 below describes the Probability of Survival for each group of mice over a period of 210 days.

## COc1cc2ncnc(Nc3ccc(O)cc3)c2cc1OC [4-(4′-hydroxyphenyl)-amino-6,7-dimethoxyquinazoline]
Age 90 days
  Probability Of Survival: 100 ± 0
Age 120 days
  Probability Of Survival: 94 ± 5
Age 150 days
  Probability Of Survival: 81 ± 10
Age 180 days
  Probability Of Survival: 68 ± 12
Age 210 days
  Probability Of Survival: 68 ± 12
By thirty weeks of age, mice fed compound (17% of the control mice)
  mice still alive: 68%
